Read-outs that look alike come from different tables or passages of the source.
Tests used:
Format in all cases: in vivo
[1] = tested on: green peach aphid (Myzus persicae); experiment: Myzus persicae - spray test
Text: (§1) The expected activity for a given combination of two active compounds can be calculated according to S. R. Colby, Weeds 15 (1967), 20-22 as follows: • If • X is the efficacy expressed in % mortality of the untreated control for test compound A at a concentration of m ppm respectively m g/ha, • Y is the efficacy expressed in % mortality of the untreated control for test compound B at a concentration of n ppm respectively n g/ha, • E is the efficacy expressed in % mortality of the untreated control using the mixture of A and B at m and n ppm respectively m and n g/ha,
(§2) If the observed insecticidal efficacy of the combination is higher than the one calculated as “E”, then the combination of the two compounds is more than additive, i.e., there is a synergistic effect.
(§3) To produce a suitable preparation of active compound, 1 part by weight of active compound is mixed with the stated amount of solvent and emulsifier, and the concentrate is diluted with emulsifier-containing water to the desired concentration.
Chinese cabbage (Brassica pekinensis) leaf-disks infected with all instars of the green peach aphid (Myzus persicae) are sprayed with a preparation of the active ingredient of the desired concentration.
After the specified period of time, mortality in % is determined 100% means all aphids have been killed; 0% means none of the aphids have been killed. The mortality values determined thus are recalculated using the Colby-formula (see sheet 1).

[2] = tested on: mustard beetle larvae (Phaedon cochleariae); experiment: Phaedon cochleariae - spray test; conditions: foliar, 144 h, read-out: Efficacy in % after 6d (mortality)
Text: as §1, §2
as §3, with “concentration. To produce a suitable preparation of a spore suspension the spores are diluted with emulsifier-containing water to the desired concentration.” for “concentration.”
Chinese cabbage (Brassica pekinensis) leaf-disks are sprayed with a preparation of the active ingredient of the desired concentration. Once dry, the leaf disks are infested with mustard beetle larvae (Phaedon cochleariae).
After the specified period of time, mortality in % is determined. 100% means all beetle larvae have been killed and 0% means none of the beetle larvae have been killed. The mortality values determined thus are recalculated using the Colby-formula (see sheet 1).

[3] = tested on: larvae of the diamondback moth (Plutella xylostella); experiment: Plutella xylostella - spray test; conditions: cabbage leaves
Text: as §1, §2
as §3, with “concentration Ammonium salt and/or penetration enhancer in a dosage of 1000 ppm are added to the desired concentration if necessary. […]” for “concentration.”
After the specified period of time, the mortality in % is determined. […] The mortality values determined thus are recalculated using the Colby-formula (see sheet 1).

SMILES: Cc1cc(C(F)(C(F)(F)F)C(F)(F)F)ccc1NC(=O)c1cccc(Cl)c1C(=O)NC(C)(C)C#N [(I-5)]
- mortality at 1.25 g/ha ([1]; Myzus persicae, foliar, 144 h, 1.25 g ai/ha, Chinese cabbage leaf disks, 6 d, read-out: Efficacy in % after 6d (mortality)): 0%
- mortality at 1.5 g/ha ([1]; Myzus persicae, foliar, 144 h, 1.5 g ai/ha, Chinese cabbage leaf disks, 6 d, read-out: Efficacy in % after 6d (mortality)): 0%
- mortality at 15 g/ha ([1]; Myzus persicae, foliar, 144 h, 15 g ai/ha, Chinese cabbage leaf disks, 6 d, read-out: Efficacy in % after 6d (mortality)): 0%
- mortality at 2.5 g/ha ([2]; 2.5 g ai/ha, Chinese cabbage leaf disks, 6 d): 0%
- mortality at 4 g/ha ([2]; 4 g ai/ha, Chinese cabbage leaf disks, 6 d): 0%
- mortality at 12 g/ha ([2]; 12 g ai/ha, Chinese cabbage leaf disks, 6 d): 0%

SMILES: O=C(NCCc1ncc(C(F)(F)F)cc1Cl)c1ccccc1C(F)(F)F [Fluopyram, fluopyram]
- mortality at 50 ppm ([3]; Plutella xylostella, 72 h, 50 ppm, 3 d, read-out: Efficacy in % after 3d (mortality)): 0%
- mortality at 100 g/ha ([2]; in Brassica rapa): 0%

SMILES: O=C1C=C(N(Cc2ccc(Cl)nc2)CC(F)F)CO1 [Flupyradifurone]
- Efficacy in % after 6d (mortality) ([1]; 0.5 g ai/ha, Chinese cabbage leaf disks, 6 d): 0%
- Efficacy in % after 2d (mortality) ([3]; 1.25 ppm, 2 d): 0%

SMILES: CC(c1ccc(C(F)(F)F)nc1)S(C)(=O)=NC#N (stereo not shown) [Sulfoxaflor (II-13), Sulfoxaflor]
- mortality at 0.3 g/ha ([1]; Myzus persicae, in Brassica rapa, foliar, 144 h, read-out: Efficacy in % after 6d (mortality)): 70%
- mortality at 0.16 g/ha ([2]; in Brassica rapa): 0%
- mortality at 12 g/ha ([2]; in Brassica rapa): 0%

From patent US9549551B2, “Active compound combinations having insecticidal properties” (priority 2013, dated 2017)
